Measurements: US9763957B2, “Autotaxin inhibitors” (Novartis AG, priority 2013, dated 2017)
pIC50: −log10 of the molar value.

Target: Recombinant human ATX (Homo sapiens (Human), UniProt Q13822)
Experiment: ATX inhibition assay (choline release, Amplex Red fluorescence)
Format: biochemical
Conditions: ATX 10 nM, LPC 18:1 10 μM, 37° C., 20 min pre-incubation; mean of n≧2
Procedure, shortened: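 Activity was taken from the slope of resorufin fluorescence (530/590 nm, read every 2 min for 40 min at 37 °C) produced by choline liberated from 10 μM oleoyl LPC.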

pIC50	Compound
7.85	Cc1nnn(Cc2cc(C(F)(F)F)ccc2/C=C/C(=O)N2CCC(N(C)S(=O)(=O)C3CC3)CC2)n1 [Example 112, (E)-N-Methyl-N-(1-(3-(2-((5-methyl-2H-tetrazol-2-yl)methyl)-4-(trifluoromethyl)phenyl)acryloyl)piperidin-4-yl)cyclopropanesulfonamide]
7.77	Cc1nnn(Cc2cc(C(F)F)ccc2/C=C/C(=O)N2CCC(c3nnc(C)o3)CC2)n1 [Example 52, (E)-3-(4-(Difluoromethyl)-2-((5-methyl-2H-tetrazol-2-yl)methy)phenyl)-1-(4-(5-methyl-1,3,4-oxadiazol-2-yl)piperidin-1-yl)prop-2-en-1-one]
8.31	Cc1nnn(Cc2cc(Cl)ccc2/C=C/C(=O)N2CCN(C3CCN(C(=O)c4c[nH]nn4)CC3)CC2)n1 [Example 149, (E)-1-(4-(1-(1H-1,2,3-Triazole-4-carbonyl)piperidin-4-yl)piperazin-1-yl)-3-(4-chloro-2-((5-methyl-2H-tetrazol-2-yl)methyl)phenyl)prop-2-en-1-one]
7.52	Cc1nnn(Cc2cc(Cl)ccc2/C=C/C(=O)N2CCN(Cc3coc(C)n3)CC2)n1 [Example 140.3, (E)-3-(4-Chloro-2-((5-methyl-2H-tetrazol-2-yl)methyl)phenyl)-1-(4-((2-methyloxazol-4-yl)methyl)piperazin-1-yl)prop-2-en-1-one]
6.96	CC(=O)NC1CCN(C(=O)/C=C/c2ccc(Cl)cc2Cn2nnc(C)n2)CC1 [Example 125, (E)-N-(1-(3-(4-Chloro-2-((5-methyl-2H-tetrazol-2-yl)methyl)phenyl)acryloyl)piperidin-4-yl)acetamide]
7.00	Cc1nnn(Cc2cc(Cl)ccc2/C=C/C(=O)N2CCCCC2c2nc(C(C)C)no2)n1 (single isomer, unassigned) [Example 30b, (R or S, E)-3-(4-chloro-2-((5-methyl-2H-tetrazol-2-yl)methyl)phenyl)-1-(2-(3-isopropyl-1,2,4-oxadiazol-5-yl)piperidin-1-yl)prop-2-en-1-one]
7.35	COCC1CCN(C(=O)/C=C/c2ccc(Cl)cc2Cn2nnc(C)n2)CC1 [Example 49.24, (E)-3-(4-Chloro-2-((5-methyl-2H-tetrazol-2-yl)methyl)phenyl)-1-(4-(methoxymethyl)piperidin-1-yl)prop-2-en-1-one]
8.40	Cc1nnn(Cc2cc(Cl)ccc2/C=C/C(=O)N2CCC(c3ncc(C)o3)CC2)n1 [Example 24, (E)-3-(4-Chloro-2-((5-methyl-2H-tetrazol-2-yl)methyl)phenyl)-1-(4-(5-methyloxazol-2-yl)piperidin-1-yl)prop-2-en-1-one]
7.85	Cc1nc(Cc2cc(Cl)ccc2/C=C/C(=O)N2CCN(Cc3ccc(F)cc3)C[C@H]2C)no1 [Example 144, (R,E)-3-(4-Chloro-2-((5-methyl-1,2,4-oxadiazol-3-yl)methyl)phenyl)-1-(4-(4-fluorobenzyl)-2-methylpiperazin-1-yl)prop-2-en-1-one]
8.20	Cc1cnn(C2CCN(C(=O)/C=C/c3ccc(Cl)cc3Cn3nnc(C)n3)CC2)c1 [Example 28, (E)-3-(4-Chloro-2-((5-methyl-2H-tetrazol-2-yl)methyl)phenyl)-1-(4-(4-methyl-1H-pyrazol-1-yl)piperidin-1-yl)prop-2-en-1-one]
7.92	Cc1nnn(Cc2cc(Cl)ccc2/C=C/C(=O)N2CCC(c3nnc(CN4CCOCC4)o3)CC2)n1 [Example 134, (E)-3-(4-Chloro-2-((5-methyl-2H-tetrazol-2-yl)methyl)phenyl)-1-(4-(5-(morpholinomethyl)-1,3,4-oxadiazol-2-yl)piperidin-1-yl)prop-2-en-1-one]
7.80	Cc1nnn(Cc2cc(Cl)ccc2/C=C/C(=O)N2CCN(c3ccn(C)n3)C[C@H]2C)n1 [Example 49.21, (R,E)-3-(4-Chloro-2-((5-methyl-2H-tetrazol-2-yl)methyl)phenyl)-1-(2-methyl-4-(1-methyl-1H-pyrazol-3-yl)piperazin-1-yl)prop-2-en-1-one]
6.65	COCC1CCCN(C(=O)/C=C/c2ccc(Cl)cc2Cn2nnc(C)n2)C1 (stereo not shown) [Example 49.17, (E)-3-(4-Chloro-2-((5-methyl-2H-tetrazol-2-yl)methyl)phenyl)-1-(3-(methoxymethyl)piperidin-1-yl)prop-2-en-1-one]
8.46	COc1ccc(CN2CCN(C(=O)/C=C/c3ccc(Cl)cc3Cn3nnc(C)n3)[C@H](C)C2)nc1 [Example 123, (R,E)-3-(4-Chloro-2-((5-methyl-2H-tetrazol-2-yl)methyl)phenyl)-1-(4-((5-methoxypyridin-2-yl)methyl)-2-methylpiperazin-1-yl)prop-2-en-1-one]
7.40	Cc1ncn(C2CCN(C(=O)/C=C/c3ccc(Cl)cc3Cn3nnc(C)n3)CC2)n1 [Example 10, (E)-3-(4-Chloro-2-((5-methyl-2H-tetrazol-2-yl)methyl)phenyl)-1-(4-(3-methyl-1H-1,2,4-triazol-1-yl)piperidin-1-yl)prop-2-en-1-one]
8.10	Cc1nnn(Cc2cc(C(F)(F)F)ccc2/C=C/C(=O)N2CCC(c3nnc(C)o3)CC2)n1 [Example 57, (E)-1-(4-(5-Methyl-1,3,4-oxadiazol-2-yl)piperidin-1-yl)-3-(2-((5-methyl-2H-tetrazol-2-yl)methyl)-4-(trifluoromethyl)phenyl)prop-2-en-1-one]
8.00	CCc1nnc(C2CCN(C(=O)/C=C/c3ccc(Cl)cc3Cn3nnc(C)n3)CC2)o1 [Example 94, (E)-3-(4-Chloro-2-((5-methyl-2H-tetrazol-2-yl)methyl)phenyl)-1-(4-(5-ethyl-1,3,4-oxadiazol-2-yl)piperidin-1-yl)prop-2-en-1-one]
7.54	Cc1nnn(Cc2cc(Cl)ccc2/C=C/C(=O)N2CCCC(c3nc(C(C)C)no3)C2)n1 (racemic) [Example 34, (rac)-(E)-3-(4-Chloro-2-((5-methyl-2H-tetrazol-2-yl)methyl)phenyl)-1-(3-(3-isopropyl-1,2,4-oxadiazol-5-yl)piperidin-1-yl)prop-2-en-1-one]
6.54	Cc1ccc(/C=C/C(=O)N2CCC(Cc3nnc(C)o3)CC2)c(Cn2nnc(C)n2)c1 [Example 72, (E)-1-(4-((5-Methyl-1,3,4-oxadiazol-2-yl)methyl)piperidin-1-yl)-3-(4-methyl-2-((5-methyl-2H-tetrazol-2-yl)methyl)phenyl)prop-2-en-1-one]
8.09	Cc1cnn(CC2CCN(C(=O)/C=C/c3ccc(Cl)cc3Cn3nnc(C)n3)CC2)n1 [Example 120, (E)-3-(4-Chloro-2-((5-methyl-2H-tetrazol-2-yl)methyl)phenyl)-1-(4-((4-methyl-2H-1,2,3-triazol-2-yl)methyl)piperidin-1-yl)prop-2-en-1-one]
6.80	CNC(=O)[C@@H]1CC(F)(F)CN1C(=O)/C=C/c1ccc(C(F)(F)F)cc1Cn1nnc(C)n1 [Example 91, (S,E)-4,4-Difluoro-N-methyl-1-(3-(2-((5-methyl-2H-tetrazol-2-yl)methyl)-4-(trifluoromethyl)phenyl)acryloyl)pyrrolidine-2-carboxamide]
8.38	Cc1nnn(Cc2cc(C(F)(F)F)ccc2/C=C/C(=O)N2CCN(Cc3cnn(C)c3)C[C@H]2C)n1 [Example 70, (R,E)-3-(2-((5-Methyl-2H-tetrazol-2-yl)methyl)-4-(trifluoromethyl)phenyl)-1-(2-methyl-4-((1-methyl-1H-pyrazol-4-yl)methyl)piperazin-1-yl)prop-2-en-1-one]
